According to ChEMBL document CHEMBL5653616, “FRAX597, a small molecule inhibitor of the p21-activated kinases, inhibits tumorigenesis of neurofibromatosis type 2 (NF2)-associated Schwannomas” (J Biol Chem, 2013):
Blank lines part the entries; values can stand above or below the compound they belong to. Calls of active or inactive are those of the source. The calls are words filed in the database; no cut-off is given here.

Legend:
[1] = Induction of cell cycle arrest in mouse SC4 [Mouse schwannoma] cells assessed as accumulation of cells at G2/M phase at 1 uM measured upto 96 hrs by propidium iodide staining based flow cytometeric analysis (reference value: 22%); type: functional
SC4 [2] = assay: Antitumor activity against Nf2 knockout mouse SC4 [Mouse schwannoma] cells harbouring pLuc-mCherry implanted in NOD/SCID mouse assessed as reduction in tumor growth at 100 mg/kg, po qd administered for 14 days by bioluminescence imaging analysis; type: functional, organism-based; settings: time 14.0 day
SC4 [3] = assay: Downregulation of YES1 expression in mouse SC4 [Mouse schwannoma] cells by Western blotting analysis; type: functional, cell-based
[4] = target: Serine/threonine-protein kinase PAK 1 (Mus musculus, UniProt O88643)
Sequence of Serine/threonine-protein kinase PAK 1 (Mus musculus, UniProt O88643) (O88643 whole entry): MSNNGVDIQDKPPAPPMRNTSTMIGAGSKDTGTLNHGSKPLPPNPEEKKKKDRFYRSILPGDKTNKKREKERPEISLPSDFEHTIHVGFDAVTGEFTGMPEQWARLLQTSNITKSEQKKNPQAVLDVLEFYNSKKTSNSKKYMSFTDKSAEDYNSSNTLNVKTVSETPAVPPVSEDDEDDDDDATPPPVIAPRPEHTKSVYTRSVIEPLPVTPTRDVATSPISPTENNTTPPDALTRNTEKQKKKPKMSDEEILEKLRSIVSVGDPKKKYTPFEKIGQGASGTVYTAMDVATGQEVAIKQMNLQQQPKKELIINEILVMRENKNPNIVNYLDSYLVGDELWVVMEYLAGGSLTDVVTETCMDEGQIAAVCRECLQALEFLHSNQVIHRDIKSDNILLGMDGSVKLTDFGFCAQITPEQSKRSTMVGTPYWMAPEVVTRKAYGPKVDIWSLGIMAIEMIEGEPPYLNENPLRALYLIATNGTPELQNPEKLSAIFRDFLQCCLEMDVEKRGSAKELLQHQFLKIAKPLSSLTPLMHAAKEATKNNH
Description: Inhibition of PAK1 in mouse SC4 [Mouse schwannoma] cells assessed as reduction in p-PAK1 at serine 144 residue at 1 to 5 uM incubated for 2 hrs by Western blotting analysis

SC4 [5] = assay: Induction of cell cycle arrest in mouse SC4 [Mouse schwannoma] cells assessed as accumulation of cells at sub-G1 phase at 1 uM measured upto 96 hrs by propidium iodide staining based flow cytometeric analysis; type: functional
[6] = Induction of cell cycle arrest in mouse SC4 [Mouse schwannoma] cells assessed as accumulation of cells at S phase at 1 uM measured upto 96 hrs by propidium iodide staining based flow cytometeric analysis (reference value: 27%); type: functional
[7] = Induction of cell cycle arrest in mouse SC4 [Mouse schwannoma] cells assessed as accumulation of cells at G1 phase at 1 uM measured upto 96 hrs by propidium iodide staining based flow cytometeric analysis (reference value: 50%); type: functional
[8] = target: Tyrosine-protein kinase Yes (Homo sapiens) (UniProt P07947); settings: dose 100.0 nM
Sequence of Tyrosine-protein kinase Yes (Homo sapiens) (P07947 2-543 limits assumed): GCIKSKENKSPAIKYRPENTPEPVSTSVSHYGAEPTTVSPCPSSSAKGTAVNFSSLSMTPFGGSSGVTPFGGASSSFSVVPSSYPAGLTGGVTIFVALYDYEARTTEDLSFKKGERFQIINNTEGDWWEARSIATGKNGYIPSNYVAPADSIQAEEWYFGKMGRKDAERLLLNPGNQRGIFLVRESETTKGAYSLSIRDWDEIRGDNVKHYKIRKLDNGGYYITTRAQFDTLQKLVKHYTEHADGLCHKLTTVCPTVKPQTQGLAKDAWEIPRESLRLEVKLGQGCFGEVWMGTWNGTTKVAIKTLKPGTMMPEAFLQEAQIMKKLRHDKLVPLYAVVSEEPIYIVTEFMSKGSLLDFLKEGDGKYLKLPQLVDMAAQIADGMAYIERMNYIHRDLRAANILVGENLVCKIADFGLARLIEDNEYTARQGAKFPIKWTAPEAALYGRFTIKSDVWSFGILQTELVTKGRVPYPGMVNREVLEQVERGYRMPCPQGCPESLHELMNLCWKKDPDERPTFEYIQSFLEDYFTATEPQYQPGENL
Description: Inhibition of YES1 (unknown origin) at 100 nM by Z-LYTE biochemical assay relative to control

[9] = target: Serine/threonine-protein kinase PAK 2 (Homo sapiens) (UniProt Q13177); settings: dose 100.0 nM
Description: Inhibition of PAK2 (unknown origin) at 100 nM by Z-LYTE biochemical assay relative to control

[10] = Inhibition of PAK1 V342F mutant (unknown origin) in presence of ATP by KinaseGlo assay
SC4 [11] = assay: Antitumor activity against Nf2 knockout mouse SC4 [Mouse schwannoma] cells harbouring pLuc-mCherry implanted in NOD/SCID mouse assessed as reduction in tumor weight at 100 mg/kg, po qd administered for 14 days; type: functional, organism-based; settings: time 14.0 day
[12] = target: T1, Serine/threonine-protein kinase PAK 4 (Homo sapiens, UniProt O96013); assay: Inhibition of PAK4 (unknown origin) by Z-LYTE biochemical assay
Target sequence in this assay (O96013 whole entry): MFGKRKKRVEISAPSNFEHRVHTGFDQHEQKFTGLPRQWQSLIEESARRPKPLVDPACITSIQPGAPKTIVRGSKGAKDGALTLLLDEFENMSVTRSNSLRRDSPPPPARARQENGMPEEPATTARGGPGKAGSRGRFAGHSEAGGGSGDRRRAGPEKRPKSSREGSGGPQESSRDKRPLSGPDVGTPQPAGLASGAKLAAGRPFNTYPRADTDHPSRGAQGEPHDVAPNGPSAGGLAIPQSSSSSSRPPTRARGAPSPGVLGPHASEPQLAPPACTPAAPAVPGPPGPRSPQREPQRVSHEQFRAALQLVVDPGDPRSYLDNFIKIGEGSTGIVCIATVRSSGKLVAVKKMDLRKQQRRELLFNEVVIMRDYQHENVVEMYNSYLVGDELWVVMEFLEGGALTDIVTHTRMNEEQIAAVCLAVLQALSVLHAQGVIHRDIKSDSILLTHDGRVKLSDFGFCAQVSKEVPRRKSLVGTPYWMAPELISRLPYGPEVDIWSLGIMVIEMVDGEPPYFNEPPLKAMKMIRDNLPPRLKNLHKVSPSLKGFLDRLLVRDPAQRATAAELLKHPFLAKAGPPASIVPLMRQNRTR

SC4 [13] = assay: Downregulation of TEK1 expression in mouse SC4 [Mouse schwannoma] cells by Western blotting analysis; type: functional, cell-based
SC4 [14] = assay: Downregulation of RET expression in mouse SC4 [Mouse schwannoma] cells by Western blotting analysis; type: functional, cell-based
SC4 [15] = assay: Downregulation of CSF1R expression in mouse SC4 [Mouse schwannoma] cells by Western blotting analysis; type: functional, cell-based
[16] = target: Angiopoietin-1 receptor (Homo sapiens) (UniProt Q02763); settings: dose 100.0 nM
Sequence of Angiopoietin-1 receptor (Homo sapiens) (Q02763 whole entry): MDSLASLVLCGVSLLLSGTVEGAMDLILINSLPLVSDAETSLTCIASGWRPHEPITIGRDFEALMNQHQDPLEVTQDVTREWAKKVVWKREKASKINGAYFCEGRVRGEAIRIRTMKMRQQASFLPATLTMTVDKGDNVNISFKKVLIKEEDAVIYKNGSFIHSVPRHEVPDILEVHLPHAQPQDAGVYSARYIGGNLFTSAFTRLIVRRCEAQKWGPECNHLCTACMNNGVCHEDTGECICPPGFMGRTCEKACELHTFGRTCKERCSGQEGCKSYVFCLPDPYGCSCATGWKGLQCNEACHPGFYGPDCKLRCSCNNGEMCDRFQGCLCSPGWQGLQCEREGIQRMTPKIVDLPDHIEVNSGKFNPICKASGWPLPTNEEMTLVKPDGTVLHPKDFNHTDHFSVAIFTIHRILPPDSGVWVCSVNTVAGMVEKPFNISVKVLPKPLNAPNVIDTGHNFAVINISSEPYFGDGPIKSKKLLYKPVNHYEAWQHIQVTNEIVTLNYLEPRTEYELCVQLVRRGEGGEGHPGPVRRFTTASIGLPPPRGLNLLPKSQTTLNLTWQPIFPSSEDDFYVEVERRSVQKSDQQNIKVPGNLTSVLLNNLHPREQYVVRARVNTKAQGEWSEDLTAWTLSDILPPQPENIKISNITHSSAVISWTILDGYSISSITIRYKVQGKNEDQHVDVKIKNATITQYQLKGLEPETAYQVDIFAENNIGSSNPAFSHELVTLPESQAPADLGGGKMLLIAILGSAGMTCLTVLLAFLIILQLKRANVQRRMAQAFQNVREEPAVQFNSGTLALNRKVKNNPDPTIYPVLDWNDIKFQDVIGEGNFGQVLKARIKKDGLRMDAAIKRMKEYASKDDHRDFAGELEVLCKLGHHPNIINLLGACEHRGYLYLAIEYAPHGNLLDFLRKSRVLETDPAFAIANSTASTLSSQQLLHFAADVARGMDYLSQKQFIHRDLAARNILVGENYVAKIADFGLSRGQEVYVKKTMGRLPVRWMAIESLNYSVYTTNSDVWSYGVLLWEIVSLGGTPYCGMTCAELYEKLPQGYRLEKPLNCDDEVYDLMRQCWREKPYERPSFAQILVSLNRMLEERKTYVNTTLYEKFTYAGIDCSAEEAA
Description: Inhibition of TEK (unknown origin) at 100 nM by Z-LYTE biochemical assay relative to control

[17] = target: Serine/threonine-protein kinase PAK 5 (Homo sapiens) (UniProt Q9P286); settings: dose 100.0 nM
Sequence of Serine/threonine-protein kinase PAK 5 (Homo sapiens) (Q9P286 whole entry, looked up): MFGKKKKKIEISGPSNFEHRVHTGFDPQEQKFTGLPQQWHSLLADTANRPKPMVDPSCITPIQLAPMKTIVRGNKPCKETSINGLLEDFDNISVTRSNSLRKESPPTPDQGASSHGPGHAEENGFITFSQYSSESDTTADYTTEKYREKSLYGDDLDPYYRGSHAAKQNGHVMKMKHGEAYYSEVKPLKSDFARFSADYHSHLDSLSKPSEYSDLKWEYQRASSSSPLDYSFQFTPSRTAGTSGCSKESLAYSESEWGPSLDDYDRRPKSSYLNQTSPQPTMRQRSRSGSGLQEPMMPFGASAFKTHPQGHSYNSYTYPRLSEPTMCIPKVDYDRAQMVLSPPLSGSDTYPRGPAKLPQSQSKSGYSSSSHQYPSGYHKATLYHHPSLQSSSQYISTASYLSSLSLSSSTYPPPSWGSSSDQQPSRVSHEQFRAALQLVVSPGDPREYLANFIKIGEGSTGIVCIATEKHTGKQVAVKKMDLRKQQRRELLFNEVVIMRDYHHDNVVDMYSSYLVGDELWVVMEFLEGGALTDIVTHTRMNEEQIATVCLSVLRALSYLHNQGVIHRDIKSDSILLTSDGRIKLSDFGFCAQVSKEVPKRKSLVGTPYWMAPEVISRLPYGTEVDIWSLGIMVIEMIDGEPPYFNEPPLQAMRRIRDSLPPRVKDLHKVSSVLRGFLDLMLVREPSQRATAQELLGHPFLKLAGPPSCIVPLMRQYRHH
Description: Inhibition of PAK7 (unknown origin) at 100 nM by Z-LYTE biochemical assay relative to control

[18] = Inhibition of PAK1 V342Y mutant (unknown origin) in presence of ATP by KinaseGlo assay
SC4 [19] = assay: Antiproliferative activity against mouse SC4 [Mouse schwannoma] cells assessed as reduction in cell viability at 1 uM measured upto 96 hrs by coulter counter analysis; type: functional, cell-based
[20] = target: Proto-oncogene tyrosine-protein kinase receptor Ret (Homo sapiens) (UniProt P07949); settings: dose 100.0 nM
Description: Inhibition of RET (unknown origin) at 100 nM by Z-LYTE biochemical assay relative to control

[21] = target: Serine/threonine-protein kinase PAK 6 (Homo sapiens) (UniProt Q9NQU5); settings: dose 100.0 nM
Description: Inhibition of PAK6 (unknown origin) at 100 nM by Z-LYTE biochemical assay relative to control

[22] = target: Macrophage colony-stimulating factor 1 receptor (Homo sapiens) (UniProt P07333); settings: dose 100.0 nM
Sequence of Macrophage colony-stimulating factor 1 receptor (Homo sapiens) (P07333 whole entry): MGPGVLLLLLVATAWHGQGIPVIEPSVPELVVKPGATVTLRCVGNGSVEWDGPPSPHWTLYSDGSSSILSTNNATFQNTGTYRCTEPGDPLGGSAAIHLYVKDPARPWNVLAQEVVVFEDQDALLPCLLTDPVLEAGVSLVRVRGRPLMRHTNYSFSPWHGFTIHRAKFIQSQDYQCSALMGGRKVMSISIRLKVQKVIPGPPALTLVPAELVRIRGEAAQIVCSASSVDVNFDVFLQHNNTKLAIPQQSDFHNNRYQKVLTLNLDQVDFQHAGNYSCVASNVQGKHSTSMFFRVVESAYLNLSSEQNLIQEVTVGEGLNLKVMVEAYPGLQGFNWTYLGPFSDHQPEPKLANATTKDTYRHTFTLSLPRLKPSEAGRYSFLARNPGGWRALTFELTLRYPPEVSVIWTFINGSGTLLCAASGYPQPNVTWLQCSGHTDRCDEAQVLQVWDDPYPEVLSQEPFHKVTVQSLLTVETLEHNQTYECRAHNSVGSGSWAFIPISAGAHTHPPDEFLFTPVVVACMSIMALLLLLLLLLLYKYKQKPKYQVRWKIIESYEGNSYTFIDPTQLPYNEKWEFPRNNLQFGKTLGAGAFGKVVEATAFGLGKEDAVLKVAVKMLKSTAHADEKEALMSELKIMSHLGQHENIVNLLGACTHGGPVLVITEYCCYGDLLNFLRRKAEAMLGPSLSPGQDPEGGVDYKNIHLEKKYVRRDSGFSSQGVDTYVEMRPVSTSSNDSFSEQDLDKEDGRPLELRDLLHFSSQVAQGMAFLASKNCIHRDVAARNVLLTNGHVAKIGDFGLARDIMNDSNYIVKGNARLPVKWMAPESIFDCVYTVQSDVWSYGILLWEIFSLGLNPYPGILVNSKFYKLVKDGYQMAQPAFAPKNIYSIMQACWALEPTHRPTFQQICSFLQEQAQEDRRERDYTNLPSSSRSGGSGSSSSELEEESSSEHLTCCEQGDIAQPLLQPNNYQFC
Description: Inhibition of CSF1R (unknown origin) at 100 nM by Z-LYTE biochemical assay relative to control

[23] = target: T1, Serine/threonine-protein kinase PAK 4; settings: dose 100.0 nM
Description: Inhibition of PAK4 (unknown origin) at 100 nM by Z-LYTE biochemical assay relative to control

[24] = target: Serine/threonine-protein kinase PAK 1 (Homo sapiens, UniProt Q13153); assay: Inhibition of TEV protease fused 6His-tagged PAK1 KD (249 to 545 residues) (unknown origin) expressed in Sf21 cells by Z-LYTE biochemical assay
Sequence of Serine/threonine-protein kinase PAK 1 (Homo sapiens, UniProt Q13153) (Q13153 whole entry, the tested form may be a part): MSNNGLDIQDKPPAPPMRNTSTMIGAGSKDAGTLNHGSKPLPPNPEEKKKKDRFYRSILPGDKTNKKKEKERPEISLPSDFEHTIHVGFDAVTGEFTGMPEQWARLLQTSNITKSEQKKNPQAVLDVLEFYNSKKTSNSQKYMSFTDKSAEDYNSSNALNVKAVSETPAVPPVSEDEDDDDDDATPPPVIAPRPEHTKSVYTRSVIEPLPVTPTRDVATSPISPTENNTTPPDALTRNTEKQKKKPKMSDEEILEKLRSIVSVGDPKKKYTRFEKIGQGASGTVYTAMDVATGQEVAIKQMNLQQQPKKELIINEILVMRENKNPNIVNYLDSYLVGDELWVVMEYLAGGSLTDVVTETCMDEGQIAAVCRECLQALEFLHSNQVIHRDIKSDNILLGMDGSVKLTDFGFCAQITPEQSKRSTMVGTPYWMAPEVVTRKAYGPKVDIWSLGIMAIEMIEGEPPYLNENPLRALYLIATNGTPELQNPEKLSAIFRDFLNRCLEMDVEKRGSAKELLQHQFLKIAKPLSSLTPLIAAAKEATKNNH

Compound: CCn1c(=O)c(-c2ccc(-c3cncs3)cc2Cl)cc2cnc(Nc3ccc(N4CCN(C)CC4)cc3)nc21.Cl
Activity [1]: 11%
Activity (SC4 [2]): Active
Activity (SC4 [3]): Active
IC50 [4]: 70 nM
Activity (SC4 [5]): inactive
Activity [6]: 12%
Activity [7]: 74%
inhibition [8]: 87%
inhibition [9]: 93%
IC50 [10]: > 3000 nM
Activity (SC4 [11]): Active
IC50 [12]: > 10000 nM
Activity (SC4 [13]): Active
Activity (SC4 [14]): Active
Activity (SC4 [15]): Active
inhibition [16]: 87%
inhibition [17]: 8%
IC50 [18]: > 2000 nM
Activity (SC4 [19]): Active
inhibition [20]: 82%
inhibition [21]: 23%
inhibition [22]: 91%
inhibition [23]: 0%

Compound: Cc1nc(Nc2n[nH]c3c2CN(C(=O)N[C@H](CN(C)C)c2ccccc2)C3(C)C)c2sccc2n1
Activity (SC4 [19]): Active

IC50 [24]: 483 nM
IC50 [12]: 580 nM
Compound: CN1CCN(c2ccc(Nc3ncc4ccc(=O)n(C5CCCC5)c4n3)cc2)CC1

IC50 [24]: 20 nM
IC50 [12]: 559 nM
Compound: CCn1c(=O)c(-c2ccc(Cl)cc2Cl)cc2cnc(Nc3ccc(N4CCN(C)CC4)cc3)nc21
